The term IC50 denotes the point on the concentration scale where inhibition reaches its midpoint. The low end stands for inhibition by little substance, the high end for a need for much substance.

The assay has as its target T1, Cholecystokinin receptor type A (Cavia porcellus, UniProt Q63931).
T1 sequence (Q63931 whole entry): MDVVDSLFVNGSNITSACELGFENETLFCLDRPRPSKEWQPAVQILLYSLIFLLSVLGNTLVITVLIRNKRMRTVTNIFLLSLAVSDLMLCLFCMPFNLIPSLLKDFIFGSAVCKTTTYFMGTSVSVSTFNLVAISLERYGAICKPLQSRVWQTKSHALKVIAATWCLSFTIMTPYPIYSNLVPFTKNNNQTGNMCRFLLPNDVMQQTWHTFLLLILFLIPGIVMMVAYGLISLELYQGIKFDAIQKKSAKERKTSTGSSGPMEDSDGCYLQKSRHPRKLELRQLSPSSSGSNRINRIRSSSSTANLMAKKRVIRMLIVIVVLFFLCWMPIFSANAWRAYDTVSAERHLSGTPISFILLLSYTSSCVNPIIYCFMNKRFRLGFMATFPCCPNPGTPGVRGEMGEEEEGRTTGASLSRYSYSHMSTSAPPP
Nature of the assay: In vitro binding affinity for the cholecystokinin type A receptor in guinea pig pancreas assayed using [125I]BH-CCK-8 as radioligand.
Regarding `CC(C)(C)NC(=O)CN1C(=O)[C@H](NC(=O)Nc2cccc(Cl)c2)C[C@H](C2CCCCC2)c2ccccc21`, the IC50 was found to be 171 nM.

Turning to `CC(C)(NC(=O)CN1C(=O)[C@H](NC(=O)Nc2cccc(Cl)c2)C[C@H](c2ccccc2)c2ccccc21)c1ccccc1`, the half-maximal inhibitory concentration (IC50) is 460 nM. Next, `CN(C(=O)CN1C(=O)[C@H](NC(=O)Nc2cccc(Cl)c2)C[C@H](c2ccccc2)c2ccccc21)C(C)(C)C`: 4.2 nM; `CC(C)(C)NC(=O)CN1C(=O)[C@H](NC(=O)Nc2cccc(Cl)c2)C[C@H](c2ccccc2)c2ccc(Cl)cc21`: 320 nM.

On to `CC1(NC(=O)CN2C(=O)[C@H](NC(=O)Nc3cccc(Cl)c3)C[C@H](c3ccccc3)c3ccccc32)CCCCC1`, for which the concentration for half-maximal inhibition (IC50) is 467 nM.

`Cc1ccccc1NC(=O)N[C@@H]1C[C@H](c2ccccc2)c2ccccc2N(CC(=O)NC(C)(C)C)C1=O` yielded an IC50 of 1470 nM.

As to `Cc1ccc(NC(=O)N[C@@H]2C[C@H](c3ccccc3)c3ccccc3N(CC(=O)NC(C)(C)C)C2=O)cc1`, the IC50 amounted to 1140 nM.

As to `Cc1ccc([C@H]2C[C@@H](NC(=O)Nc3cccc(Cl)c3)C(=O)N(CC(=O)NC(C)(C)C)c3cc(C)ccc32)cc1`, the IC50 was determined as 417 nM.

The compound `Cc1ccc2c(c1)N(CC(=O)NC(C)(C)C)C(=O)[C@H](NC(=O)Nc1cccc(Cl)c1)C[C@@H]2c1ccccc1` (stereo in doubt; 4) registered an IC50 of 176 nM. Next, `Cc1ccc2c(c1)N(CC(=O)NC(C)(C)C)C(=O)[C@@H](NC(=O)Nc1cccc(Cl)c1)C[C@H]2c1ccccc1`: 363 nM; `Cc1ccc2c(c1)N(CC(=O)OC(C)(C)C)C(=O)[C@H](NC(=O)Nc1cccc(Cl)c1)C[C@@H]2c1ccccc1`: 34 nM. Next, `CC(C)(C)NC(=O)CN1C(=O)[C@H](NC(=O)Nc2cccc(Cl)c2)C[C@H](c2ccccc2)c2ccccc21`: 144 nM.

Turning to `Cc1ccc2c(c1)N(CC(=O)NC(C)(C)C)C(=O)[C@H](NC(=O)Nc1cccc(Cl)c1)C[C@@H]2c1ccccc1` (stereo in doubt; 43a), the IC50 stood at 130 nM. This IC50 and that of the compound before are within 1.5-fold of each other. Next, `Cc1cccc(NC(=O)N[C@@H]2C[C@H](c3ccccc3)c3ccccc3N(CC(=O)NC(C)(C)C)C2=O)c1`: 288 nM; `COc1cccc(NC(=O)N[C@@H]2C[C@H](c3ccccc3)c3ccccc3N(CC(=O)NC(C)(C)C)C2=O)c1`: 166 nM; `Cc1ccc2c(c1)N(CC(=O)NC(C)(C)C)C(=O)[C@H](NC(=O)Nc1cccc(Cl)c1)C[C@@H]2C(C)C`: 72 nM. In turn, `Cc1cccc(NC(=O)N[C@@H]2N=C(c3ccccc3)c3ccccc3N(C)C2=O)c1` [L-365260] displayed an IC50 of 86 nM.

The compound `CC(C)(C)NC(=O)CN1C(=O)[C@H](NC(=O)Nc2ccc(Cl)cc2)C[C@H](c2ccccc2)c2ccccc21` displayed an IC50 of 399 nM. Next, `Cc1cccc(NC(=O)N[C@@H]2C[C@H](c3ccccc3)c3ccccc3N(CC(=O)OC(C)(C)C)C2=O)c1`: 50 nM. Next, `CCC(C)(C)NC(=O)CN1C(=O)[C@H](NC(=O)Nc2cccc(Cl)c2)C[C@H](c2ccccc2)c2ccccc21`: 144 nM; `CCc1ccc2c(c1)N(CC(=O)NC(C)(C)C)C(=O)[C@H](NC(=O)Nc1cccc(Cl)c1)C[C@@H]2c1ccccc1`: 71 nM; `Cc1ccc2c(c1)N(CC(=O)NC(C)(C)C)C(=O)[C@H](NC(=O)Nc1cccc(Cl)c1)C[C@@H]2C1CCCCC1`: 560 nM. Compound `CC(C)(C)NC(=O)CN1C(=O)[C@H](NC(=O)Nc2cccc(Cl)c2)C[C@H](c2cccc(Cl)c2)c2ccccc21` returned an IC50 of 69 nM. Compared with the last compound, the IC50 is about 8.1-fold lower. Next, `CC(C)(C)NC(=O)CN1C(=O)[C@H](NC(=O)Nc2cccc(Cl)c2)C[C@H](c2ccccc2)c2cc(Cl)ccc21`: 287 nM. Next, `Cc1ccc2c(c1)[C@@H](c1ccccc1)C[C@@H](NC(=O)Nc1cccc(Cl)c1)C(=O)N2CC(=O)NC(C)(C)C`: 317 nM. `Cc1ccc2c(c1)N(CC(=O)NC(C)(C)C)C(=O)[C@H](NC(=O)Nc1cccc(Cl)c1)C[C@@H]2Cc1ccccc1`: the IC50 was over 10000 nM. Next, `CC(C)(C)NC(=O)CN1C(=O)[C@@H](NC(=O)Nc2cccc(Cl)c2)C[C@H](C2CCCCC2)c2ccccc21`: over 10000 nM; `Cc1cccc2c1N(CC(=O)NC(C)(C)C)C(=O)[C@H](NC(=O)Nc1cccc(Cl)c1)C[C@@H]2c1ccccc1`: 77 nM.

The values above are taken from ChEMBL document CHEMBL1127392, “5-Phenyl-3-ureidobenzazepin-2-ones as cholecystokinin-B receptor antagonists” (J Med Chem, 1994).
